According to ChEMBL document CHEMBL1122911, “Synthesis and antitumor activity of tropolone derivatives. 2” (1985):
Values after ≈ are worked out from the molar mass of the structure shown. Values joined by “and” are separate entries in the source; they are usually repeats but may differ in a detail not shown here. Equal values may be shown once. Active and inactive are the calls of the source. No cut-off for these calls is given here.

Assays:
Mus musculus [1] = test: In vivo antitumor activity against leukemia P388 in mice after intraperitoneal administration at a dose of 100 mg/kg once a day for 1 and 5 days; assay type: functional
Mus musculus [2] = test: In vivo antitumor activity against leukemia P388 in mice after intraperitoneal administration at a dose of 200 mg/kg once a day for 1 and 5 days; assay type: functional
Mus musculus [3] = test: In vivo antitumor activity against leukemia P388 in mice after intraperitoneal administration at a dose of 400 mg/kg once a day for 1 and 5 days; assay type: functional
[4] = In vitro inhibitory activity against growth of KB cells; assay type: functional, Homo sapiens; settings: for IC50: Homo sapiens, KB, read-out: ID50 (the source's name)
Mus musculus [5] = test: Compound was tested for inhibitory activity against P388 leukemia in mice at 400 mg/kg; assay type: functional, organism-based; design: dose 400 mg/kg
Mus musculus [6] = test: In vivo antitumor activity against leukemia P388 in mice after intraperitoneal administration once a day for 1 and 5 days; assay type: functional
Mus musculus [7] = test: In vivo antitumor activity against leukemia P388 in mice after intraperitoneal administration at a dose of 50 mg/kg once a day for 1 and 5 days; assay type: functional
Mus musculus [8] = test: In vivo antitumor activity against leukemia P388 in mice after intraperitoneal administration of the compound at a dose of 200 mg/kg once a day for 1 and 5 days; assay type: functional
Mus musculus [9] = test: In vivo antitumor activity against leukemia P388 in mice after intraperitoneal administration at a dose of 12.5 mg/kg once a day for 1 and 5 days; assay type: functional
Mus musculus [10] = test: In vivo antitumor activity against leukemia P388 in mice after intraperitoneal administration at a dose of 25 mg/kg once a day for 1 and 5 days; assay type: functional

SMILES	ID50 [4] [µM]	IC50 [4] [µg/mL]	Activity (Mus musculus [5])	also measured
COc1ccc(C(NC(=O)c2ccccc2)c2ccc(C(C)C)cc(=O)c2O)cc1 (stereo unspecified)	4.2	1.7 (≈ 4.21 µM)	–	T/C (Mus musculus [1]): 104%; T/C (Mus musculus [2]): 110%; T/C (Mus musculus [3]): 131%
O=C1c2ccccc2CCC1C1OCCc2ccccc21 (stereo unspecified)	151	42 (≈ 151 µM)	inactive	–
Cc1cc(O)c(C(C)C)cc1C(c1ccccc1)c1cc(C(C)C)c(O)cc1C	34	13 (≈ 33.5 µM)	–	T/C (Mus musculus [6]): 102% and 100% and 87%
O=c1oc2ccccc2c(O)c1C1OCCc2ccccc21 (stereo unspecified)	340	100 (≈ 340 µM)	inactive	–
COC(=O)c1ccc(O)c(C2OCCc3ccccc32)c1 (stereo unspecified)	352	> 100	inactive	–
COc1ccc(C(NC(C)=O)c2ccc(C(C)C)cc(=O)c2O)cc1 (stereo unspecified)	18	6 (≈ 17.6 µM)	–	T/C (Mus musculus [1]): 92%; T/C (Mus musculus [2]): 92%; T/C (Mus musculus [3]): 108%
CC(C)c1ccc(C(Sc2ccccc2)c2ccccc2)c(O)c(=O)c1 (stereo unspecified)	1.4	0.5 (≈ 1.38 µM)	–	T/C (Mus musculus [1]): 108%; T/C (Mus musculus [2]): 135%; T/C (Mus musculus [3]): 113%
COc1ccc(C(c2oc(CO)cc(=O)c2O)c2oc(CO)cc(=O)c2O)cc1	249	100 (≈ 249 µM)	–	T/C (Mus musculus [1]): 98%; T/C (Mus musculus [2]): 102%; T/C (Mus musculus [7]): 102%
CC(=O)C1=C(O)CN(C2OCCc3ccccc32)C1=O (stereo unspecified)	366	> 100	inactive	–
COc1ccc(C(c2ccc(C(C)C)cc(=O)c2O)n2c(=S)oc3ccccc32)cc1 (stereo unspecified)	8.5	3.7 (≈ 8.53 µM)	–	T/C (Mus musculus [8]): 105%; T/C (Mus musculus [1]): 113%; T/C (Mus musculus [3]): 133%
CCOC(c1ccc(OC)cc1)c1ccc(C(C)C)cc(=O)c1O (stereo unspecified)	–	0.5 (≈ 1.52 µM)	–	T/C (Mus musculus [9]): 96%; T/C (Mus musculus [10]): 109%; T/C (Mus musculus [7]): 119%
S=c1oc2ccc(Cl)cc2n1C1OCCc2ccccc21 (stereo unspecified)	268	85 (≈ 267 µM)	inactive	–
Clc1ccc2oc(SCC3OCCc4ccccc43)nc2c1 (stereo unspecified)	18	6.1 (≈ 18.4 µM)	inactive	–
S=c1oc2ccc(Cl)cc2n1CC1OCCc2ccccc21 (stereo unspecified)	28	8.9 (≈ 26.8 µM)	inactive	–
Oc1ccccc1C1OCCc2ccccc21 (stereo unspecified)	90	20.5 (≈ 90.6 µM)	inactive	–
Oc1ccc(C2OCCc3ccccc32)cc1 (stereo unspecified)	119	27 (≈ 119 µM)	inactive	–
Cc1cc(O)c(C(C)C)cc1C1OCCc2ccccc21 (stereo unspecified)	57	16 (≈ 56.7 µM)	inactive	–
Oc1ncc(C2OCCc3ccccc32)c(O)n1 (stereo unspecified)	410	> 100	inactive	–
CC1(C)CC(=O)C(C2OCCc3ccccc32)=C(O)C1 (stereo unspecified)	368	> 100	inactive	–
O=C1c2ccccc2CC1C1OCCc2ccccc21 (stereo unspecified)	144	38 (≈ 144 µM)	inactive	–
CCOC(c1ccccc1)c1ccc(C(C)C)cc(=O)c1O (stereo unspecified)	–	–	–	T/C (Mus musculus [6]): 96%; T/C (Mus musculus [10]): 97%
O=C(c1ccccc1)C(c1ccccc1)C1OCCc2ccccc21 (stereo unspecified)	305	> 100	inactive	–
